We go through 13 molecules from US10196359B2, “2-alkyloxy benzene formyl arylamine compound and pharmaceutical use thereof” (FUDAN UNIVERSITY, priority 2014, dated 2019).

In data set [1] the target is T1, Sphingomyelin Synthase 2 (SMS2) (Homo sapiens, UniProt Q8NHU3).
T1 construct: made in house; used as homogenate
T1 sequence (Q8NHU3 1-365): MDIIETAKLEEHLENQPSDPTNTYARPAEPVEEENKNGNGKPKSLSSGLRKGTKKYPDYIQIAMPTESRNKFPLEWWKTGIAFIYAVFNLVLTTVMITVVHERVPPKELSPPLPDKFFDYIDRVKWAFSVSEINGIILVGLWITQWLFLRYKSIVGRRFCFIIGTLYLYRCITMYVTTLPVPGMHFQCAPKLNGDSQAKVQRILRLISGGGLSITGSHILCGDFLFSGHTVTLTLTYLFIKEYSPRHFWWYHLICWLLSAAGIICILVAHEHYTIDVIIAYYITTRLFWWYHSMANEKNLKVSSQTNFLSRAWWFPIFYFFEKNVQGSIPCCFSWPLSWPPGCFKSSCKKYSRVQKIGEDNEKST
The data set is described as follows: In vitro inhibition of sphingomyelin synthase 2, HPLC fluorogenic quantitative detecting method (C6-NBD-ceramide to C6-NBD-SM, SMS2 high-expressed insect cell homogenate). The note with it: for inhibition at 10 µM: read-out: inhibition rate; for IC50: five concentrations, three parallel groups, experimental value, read-out: SMS2 Median Inhibitory Concentration IC50. It is filed as biochemical. An excerpt:
The second aim of the present invention is to show the use of 2-alkoxy benzene formyl arylamines in preparing SMS small-molecule inhibitors. This invention evaluate SMS inhibitory activity of 2-alkoxy benzene formyl arylamines as scheme I through HPLC fluorogenic quantitative detecting method reported (Xiaodong Deng; Hong Sun; et al. Analytical Letters, 2012, 45:12, 1581-1589), which can make it possible to calculate the catalytic activity difference of SMS treated with inhibitors or not through content changes of NBD-ceramide and NBD-sphingomyelin.
9. The organic solvents were purchased from Shanghai Sinopharm Reagent Company; methanol is of HPLC grade; water is ultrapure water filtrated by Milli-Q pump and deionized and ultrafiltrated by 0.22 μm ultrafiltration membrane. Other biological supplies are purchased in domestic companies. 10. Preparation of SMS homogenate extraction buffer (Buffer1): (50 mM Tris hydrochloride, pH 7.4, 5% anhydrous sucrose, 1 mM ethylenediaminetetraacetic acid) 1.2114 g tris(hydroxymethyl)aminomethane hydrochloride (Tris-HCl) was dissolved in 100 ml distilled water. Then 84 ml 0.1 mol/L hydrochloric acid was added. Constant volume to 200 ml. Finally, 10 g sucrose and 58.45 mg EDTA were dissolved in the mixture. 11. Preparation of SMS test buffer […]: (100 mM Hepes, 30 mM MnCl2, 3% fatty acid free BSA): 1.1916 g 4-(2-hydroxyethyl)-1-peperazineethanesulfonic acid (Hepes), 0.2969 g MnCl2.4H2O and 0.3 g fatty acid free bovine serum albumin were dissolved in distilled water then constant volume to 50 ml. 12. Preparation of under tested compound solution: To each accurate weighed compound for 1˜2 mg, an appropriate amount of DMSO was added to formulate a stock solution of 6 mM precisely. To a certain volume of the DMSO stock solution of the test compound, the appropriate volume of DMSO was added to dilute the solution to the desired concentration. 13. SMS2 high-expressed insect cell homogenate was prepared by Xu Yanhui group from Institutes of Biomedical Sciences, Fudan University. Part 1 Activity Assay for Inhibition of 2-Alkoxy-Benzoyl Aromatic Amines to Sphingomyelin Synthase 2
250 μL tri-distilled water, 30 μL Buffer2, 4 μL SMS2 high-expressed insect cell homogenate (total protein content is 0.5 μg/μL) and 10 μL DMSO or DMSO solution of under tested compound were added to 1.5 mL eppendorf tube, vortex mixed for 30 seconds and then incubated in a 37° C. water bath for 0.5 h. 3 μL ethanol solution of DMPC (40 mM) and 3 μL ethanol solution of C6-NBD-Ceramide (1.16 mM) were added, vortex mixed for 30 seconds, and then incubate in a 37° C. water bath for 2.0 hours. To it 600 μL anhydrous ethanol was added vortex mixed for 1 minute and centrifuged 10 minutes in 10000 rpm and 600 μL supernatant was taken out and stored at 4° C. for HPLC analysis.
Using the same HPLC fluorogenic quantitative detecting method as reference (Xiaodong Deng; Hong Sun; et al. Analytical Letters, 2012, 45:12, 1581-1589) to analysize samples obtained above. Analysize and record peak areas of C6-NBD-SM (Asm) and C6-NBD-Ceramide (Acer) of each sample from blank group, positive control group (compound D2) and under tested compound group. The data were parallelly determined for 3 times. Calculate inhibition rate from the formula below: […]
The DMSO stock solution of under tested compound (6 mM) was diluted stepwise into five concentration gradient. 10 μL solution of each concentration was added into the trial system to prepare samples with the method mentioned in the first step of application case 12. The Asm values of the five concentration solution of tested compound were measured, and the inhibition rate under the five concentration were calculated and fitted to obtain median inhibitory concentration (IC50). Each compound was measured three parallel groups. SMS2 median inhibitory concentration of Scheme I-1˜I-60 are listed below in Table 1: […]

The test system of another data set is SMS. The note with it: reference value; read-out: IC50 (SMS inhibitory activity); cited from earlier work.

As to `O=C(Nc1cncnc1)c1ccccc1OCc1ccccc1` [Scheme I-53, 2-benzyloxy-N-(pyrimidin-5-yl) benzamide], the melting point is 112.3 to 114.9 °C. For the same molecule, in data set [1] (at 10 μM), the inhibition at 10 µM stood at 38.4%. The IC50 in data set [1] was greater than 25 µM.

In the case of `COc1ccc(C(=O)Nc2cccnc2)c(OCc2ccccc2Cl)c1` [Scheme I-60, 2-(2-chloro-benzyloxy)-4-methoxy-N-(pyridin-3-yl) benzamide], the melting point fell in the range of 129.2 to 131.9 °C. In addition, the inhibition at 10 µM in data set [1] (at 10 μM) was 13.3%. For the same molecule, the IC50 in data set [1] is greater than 50 µM.

For the molecule `S=C(S)OC1CC2CC1C1CCCC21` (stereo not shown) [Scheme D609], in the data set with SMS, the IC50 was 375 µM.

Turning to `O=C(Nc1cccnc1)c1ccccc1OCc1cccc2ccccc12` [Scheme I-45, 2-((naphthalen-1-yl)methoxy)-N-(pyridin-3-yl) benzamide], the melting point was in the range of 91.4 to 93.9 °C. Besides, in data set [1] (at 10 μM), the inhibition at 10 µM turned out to be 78%. For the same molecule, the IC50 in data set [1] stood at 2.6 µM.

As for `O=C(Nc1cccnc1)c1cc(Cl)ccc1OCc1c(Cl)cccc1Cl` [Scheme I-54, 5-chloro-2-((2,6-dichlorophenyl)benzyloxy)-N-(pyridin-3-yl) benzamide], in data set [1] (at 10 μM), the inhibition at 10 µM turned out to be 42.3%. Moreover, the IC50 in data set [1] is greater than 25 µM.

`O=C(O)COc1cccc(COc2ccccc2C(=O)Nc2cccnc2)c1` [Scheme I-48, 2-(3-((2-(pyridin-3-ylcarbamoyl)phenoxy)methyl)phenoxy) acetic acid]: in data set [1] (at 10 μM), the inhibition at 10 µM was 3%. The IC50 in data set [1] is greater than 100 µM.

In data set [1] (at 10 μM), “2-((5-fluoro-2-methyl) benzyloxy)-N-(pyridin-3-yl) benzamide [Scheme I-21]” came in with an inhibition rate of 84.7%. Also, the IC50 in data set [1] turned out to be 0.7 µM.

In the case of `COc1ccc(OCc2ccccc2Cl)c(C(=O)Nc2cccnc2)c1` [Scheme I-59, 2-(2-chloro-benzyloxy)-5-methoxy-N-(pyridin-3-yl) benzamide], the inhibition at 10 µM in data set [1] (at 10 μM) is 7.2%. Further, the IC50 in data set [1] is greater than 100 µM.

Consider `O=C(Nc1cccnc1)c1cc([N+](=O)[O-])ccc1OCc1ccccc1Cl` [Scheme I-57, 2-(2-chloro-benzyloxy)-5-nitro-N-(pyridin-3-yl) benzamide], for which the inhibition at 10 µM in data set [1] (at 10 μM) turned out to be 1.7%. Moreover, the IC50 in data set [1] was greater than 100 µM.

As for “2-((2-ethyl) benzyloxy)-N-(pyridin-3-yl) benzamide [Scheme I-27]”, the inhibition rate in data set [1] (at 5 μM) was 78.4%. Moreover, the IC50 in data set [1] was 0.9 µM.

In data set [1] (at 5 μM), “2-((5-chloro-2-heptyloxy) benzyloxy)-N-(pyridin-3-yl) benzamide [Scheme I-40]” came in with an inhibition rate of 87.1%. In addition, the IC50 in data set [1] was found to be 0.4 µM.

“2-((4-cyano) benzyloxy)-N-(pyridin-3-yl) benzamide [Scheme I-15]” yielded an inhibition rate in data set [1] (at 50 μM) of 15.0%. In addition, in data set [1], the IC50 was greater than 100 µM.

In data set [1] (at 50 μM), “2-(3-bromo-benzyloxy)-N-(pyridin-3-yl) benzamide [Scheme I-8]” showed an inhibition rate of 67.1%. Moreover, the IC50 in data set [1] was greater than 50 µM.
